Assay results from ChEMBL document CHEMBL2440014, “Design, synthesis and biological evaluation of di-substituted cinnamic hydroxamic acids bearing urea/thiourea unit as potent histone deacetylase inhibitors” (Bioorg Med Chem Lett, 2013).

What was measured:
[1] = target: Histone deacetylase (Homo sapiens) (UniProt Q13547+O15379+Q9UBN7+Q92769+Q9UQL6+Q8WUI4+Q9BY41+Q96DB2+P56524+Q9UKV0+Q969S8); conditions: HeLa, at 1 µM
Description: Inhibition of HDAC in human HeLa cell nuclear extracts using Fluor de Lys as substrate at 1 uM by fluorescence assay

[2] = tested on: OVCAR-5; assay: Antiproliferative activity against human OVCAR5 cells after 48 hrs by sulforhodamine B assay; type: functional; conditions: OVCAR-5, 48 h
[3] = tested on: NCI-H460; assay: Antiproliferative activity against human NCI-H460 cells after 48 hrs by sulforhodamine B assay; type: functional; conditions: NCI-H460, 48 h
[4] = tested on: MDA-MB-435; assay: Antiproliferative activity against human MDA-MB-435 cells after 48 hrs by sulforhodamine B assay; type: functional; conditions: MDA-MB-435, 48 h
[5] = tested on: MCF7; assay: Antiproliferative activity against human MCF7 cells after 48 hrs by sulforhodamine B assay; type: functional; conditions: MCF7, 48 h
[6] = tested on: HCT-116; assay: Antiproliferative activity against human HCT116 cells after 48 hrs by sulforhodamine B assay; type: functional; conditions: HCT-116, 48 h
[7] = target: Histone deacetylase; assay: Inhibition of HDAC in human HeLa cell nuclear extracts using Fluor de Lys as substrate by fluorescence assay; type: protein assay

Row | inhibition [1] | GI50 [2] | GI50 [3] | GI50 [4] | GI50 [5] | GI50 [6] | IC50 [7] | SMILES
1 | 69.8% |  |  |  |  |  |  | CCCCCCCNC(=S)Nc1cc(/C=C/C(=O)NO)ccc1OCCN(CC)CC
2 | 73.9% |  |  |  |  |  |  | CCCCNC(=S)Nc1cc(/C=C/C(=O)NO)ccc1SCCN(CC)CC
3 |  | 0.61 µM | 0.22 µM | 0.48 µM | 0.17 µM | 0.24 µM |  | CCCCc1nc2cc(/C=C/C(=O)NO)ccc2n1CCN(CC)CC [PRACINOSTAT]
4 | 83.6% |  |  |  |  |  | 0.41 µM | CCCCCCCNC(=O)Nc1cc(/C=C/C(=O)NO)ccc1OCCN(CC)CC
5 | 80% |  |  |  |  |  | 0.234 µM | CCCNC(=O)Nc1cc(/C=C/C(=O)NO)ccc1OCCN(CC)CC
6 | 90.5% | 1.56 µM | 1.08 µM | 1.18 µM | 0.38 µM | 0.72 µM | 0.216 µM | CCCCCNC(=S)Nc1cc(/C=C/C(=O)NO)ccc1OCCN(CC)CC
7 | 84.5% | 1.75 µM | 1.55 µM | 1.5 µM | 0.43 µM | 0.59 µM | 0.172 µM | CCCCNC(=O)Nc1cc(/C=C/C(=O)NO)ccc1SCCN(CC)CC
8 | 73.8% |  |  |  |  |  |  | CCCCCNC(=S)Nc1cc(/C=C/C(=O)NO)ccc1SCCN(CC)CC
9 | 48.7% |  |  |  |  |  |  | CCCCCCCNC(=O)Nc1cc(/C=C/C(=O)NO)ccc1SCCN(CC)CC
10 | 88.9% | 1.34 µM | 0.87 µM | 0.83 µM | 0.29 µM | 0.47 µM | 0.186 µM | CCCCCNC(=O)Nc1cc(/C=C/C(=O)NO)ccc1OCCN(CC)CC
11 | 87.4% |  |  |  |  |  | 0.187 µM | CCCCCCNC(=S)Nc1cc(/C=C/C(=O)NO)ccc1OCCN(CC)CC
12 | 84.2% | 1.8 µM | 0.94 µM | 0.99 µM | 0.4 µM | 0.56 µM | 0.206 µM | CCCCCNC(=O)Nc1cc(/C=C/C(=O)NO)ccc1SCCN(CC)CC
13 | 82.9% |  |  |  |  |  | 0.21 µM | CCCNC(=S)Nc1cc(/C=C/C(=O)NO)ccc1OCCN(CC)CC
14 | 79.6% |  |  |  |  |  |  | CCCCCCNC(=O)Nc1cc(/C=C/C(=O)NO)ccc1SCCN(CC)CC
15 | 80.7% |  |  |  |  |  |  | CCCCNC(=O)Nc1cc(/C=C/C(=O)NO)ccc1OCCN(CC)CC
16 | 82.7% |  |  |  |  |  | 0.198 µM | CCCNC(=O)Nc1cc(/C=C/C(=O)NO)ccc1SCCN(CC)CC
17 | 62.4% |  |  |  |  |  |  | CCCCCCCNC(=S)Nc1cc(/C=C/C(=O)NO)ccc1SCCN(CC)CC
18 | 76.2% |  |  |  |  |  |  | CCCNC(=S)Nc1cc(/C=C/C(=O)NO)ccc1SCCN(CC)CC
19 | 72.2% |  |  |  |  |  |  | CCCCCCNC(=S)Nc1cc(/C=C/C(=O)NO)ccc1SCCN(CC)CC
20 |  |  |  | 0.88 µM | 0.45 µM | 0.94 µM |  | O=C(CCCCCCC(=O)Nc1ccccc1)NO [VORINOSTAT]
21 | 88% | 1.12 µM | 0.48 µM | 0.51 µM | 0.22 µM | 0.35 µM | 0.13 µM | CCCCNC(=S)Nc1cc(/C=C/C(=O)NO)ccc1OCCN(CC)CC
22 | 87.5% |  |  |  |  |  | 0.304 µM | CCCCCCNC(=O)Nc1cc(/C=C/C(=O)NO)ccc1OCCN(CC)CC
